Here are results for two molecules from ChEMBL document CHEMBL4732260, “Developing novel classes of protein kinase CK1δ inhibitors by fusing [1,2,4]triazole with different bicyclic heteroaromatic systems” (Eur J Med Chem, 2021).

The nature of assay [1]: Inhibition of porcine brain CK1delta using RRKHAAIGpSAYSITA as substrate incubated for 30 mins in presence of [gamma-33P]ATP by scintillation counting method. Type of assay: tissue-based, Sus scrofa domesticus.
Assay [2] concerns the target Casein kinase I isoform epsilon (Homo sapiens, UniProt P49674). Put plainly: Inhibition of wild-type human CK1epsilon using PLSRTLpSVASLPGL as substrate incubated for 70 mins in presence of ATP by Kinase-Glo luminescence assay. Background: Kinase-Glo measures the ATP left after a reaction by luminescence.
The target in assay [3] is Casein kinase I isoform delta (Homo sapiens, UniProt P48730). Put plainly: Inhibition of wild-type human CK1delta using PLSRTLpSVASLPGL as substrate incubated for 40 mins in presence of ATP by Kinase-Glo luminescence assay.
Casein kinase I isoform delta, sequence (P48730 whole entry, canonical isoform): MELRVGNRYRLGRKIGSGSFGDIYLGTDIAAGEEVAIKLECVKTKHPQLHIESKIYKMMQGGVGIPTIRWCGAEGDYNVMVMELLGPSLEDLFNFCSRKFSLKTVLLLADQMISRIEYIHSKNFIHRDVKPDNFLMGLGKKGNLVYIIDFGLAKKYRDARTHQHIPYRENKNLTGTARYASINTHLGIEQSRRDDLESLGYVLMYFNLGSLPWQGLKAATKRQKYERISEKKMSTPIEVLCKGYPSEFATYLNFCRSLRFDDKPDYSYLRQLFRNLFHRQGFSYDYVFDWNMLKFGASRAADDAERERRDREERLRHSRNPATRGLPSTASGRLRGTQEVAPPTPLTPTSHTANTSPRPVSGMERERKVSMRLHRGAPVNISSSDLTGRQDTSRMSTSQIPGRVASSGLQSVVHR

Casein kinase I isoform epsilon, sequence (P49674 whole entry, canonical isoform): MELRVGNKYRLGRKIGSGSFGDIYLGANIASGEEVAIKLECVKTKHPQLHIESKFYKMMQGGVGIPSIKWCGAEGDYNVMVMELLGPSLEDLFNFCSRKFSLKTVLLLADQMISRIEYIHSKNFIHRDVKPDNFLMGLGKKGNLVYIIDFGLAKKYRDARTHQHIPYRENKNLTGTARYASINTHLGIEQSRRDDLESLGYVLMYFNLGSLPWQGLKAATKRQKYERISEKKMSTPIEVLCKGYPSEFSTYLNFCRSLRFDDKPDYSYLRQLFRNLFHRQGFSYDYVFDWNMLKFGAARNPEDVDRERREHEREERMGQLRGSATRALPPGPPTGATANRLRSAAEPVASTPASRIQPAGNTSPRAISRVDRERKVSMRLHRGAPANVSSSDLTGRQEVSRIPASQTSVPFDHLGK

By IC50 is commonly meant the concentration needed to halve the response being measured. Regarding `CCC(CO)Nc1nc(NCc2ccc(-c3ccccn3)cc2)c2ncn(C(C)C)c2n1` (stereo not drawn), the IC50 in assay [1] was 400 nM. Consider `Nc1nccc(-c2c(-c3ccc(F)cc3)ncn2C2CCN(Cc3ccon3)CC2)n1`, for which the IC50 in assay [2] was found to be 17 nM; in assay [3], 3.9 nM.
